Reference: DBAASP
Values after ≈ are worked out from the molar mass of the structure shown. Values joined by “and” are separate entries in the source; they are usually repeats but may differ in a detail not shown here. Equal entries are not always repeated.

Tests used:
Assay in all cases: ≥ marks a high value that may be exact or a test limit, other limits are often not marked, values filed in µg/mL are converted to µM
Klebsiella pneumoniae = tested on: Klebsiella pneumoniae
[1] = tested on: Pseudomonas aeruginosa ATCC 27853
[2] = tested on: Klebsiella pneumoniae ATCC 700603
Bacillus subtilis JC443 = tested on: Bacillus subtilis JC443
Escherichia coli D21 = tested on: Escherichia coli D21
[3] = tested on: Streptococcus pyogenes ATCC 19615
[4] = tested on: Candida parapsilosis ATCC 22019
Listeria ivanovii = tested on: Listeria ivanovii
Bacillus megaterium = tested on: Bacillus megaterium
Escherichia coli JC113 = tested on: Escherichia coli JC113
[5] = tested on: Pseudomonas aeruginosa ATCC 9027
[6] = tested on: Acinetobacter baumannii ATCC 19606
[7] = tested on: Staphylococcus aureus JC114
Acinetobacter baumannii = tested on: Acinetobacter baumannii
[8] = tested on: Staphylococcus aureus USA 100
Saccharomyces cerevisiae = tested on: Saccharomyces cerevisiae
Aspergillus flavus = tested on: Aspergillus flavus
[9] = tested on: Candida albicans ATCC 90028
[10] = tested on: Staphylococcus aureus ATCC BAA-44
Staphylococcus aureus = tested on: Staphylococcus aureus
Escherichia coli = tested on: Escherichia coli
[11] = tested on: Staphylococcus aureus USA 300
[12] = tested on: Enterococcus faecalis ATCC 29212
Escherichia coli ML-35p = tested on: Escherichia coli ML-35p
[13] = tested on: Pseudomonas aeruginosa JC115
[14] = tested on: Escherichia coli ATCC 35218
[15] = tested on: Staphylococcus aureus ATCC 43300
[16] = tested on: Shewanella putrefaciens IAM 1509
[17] = tested on: Staphylococcus aureus IAM 1011
[18] = tested on: Escherichia coli JCM 1649
[19] = tested on: Bacillus subtilis IAM 1026
[20] = tested on: Photobacterium damselae subsp. piscicida Sp 9587
[21] = tested on: Vibrio parahaemolyticus Vp+1
Salmonella typhimurium = tested on: Salmonella typhimurium
[22] = tested on: Aeromonas salmonicida NCIMB 1102
[23] = tested on: Vibrio anguillarum NCIMB 829
[24] = tested on: Pseudomonas aeruginosa CUN 4158-02
[25] = tested on: Staphylococcus aureus ATCC 25923
[26] = tested on: Stenotrophomonas maltophilia CUN 3998-00
[27] = tested on: Staphylococcus aureus CUN 3792-99
[28] = tested on: Escherichia coli ATCC 25922
[29] = tested on: Bordetella bronchiseptica CUN 11844-99
[30] = tested on: Streptococcus dysgalactiae PTCC 1074
[31] = tested on: Streptococcus agalactiae PTCC 1365
[32] = tested on: Klebsiella pneumoniae PTCC 1388
[33] = tested on: Escherichia coli HP101BA 7601c
[34] = tested on: Staphylococcus aureus PTCC 1431

Q: For CC[C@H](C)[C@H](NC(=O)[C@H](CCCN=C(N)N)NC(=O)[C@H](CO)NC(=O)[C@H](CC(C)C)NC(=O)[C@H](Cc1ccccc1)NC(=O)[C@H](Cc1ccccc1)NC(=O)[C@@H](N)Cc1ccccc1)C(=O)N[C@@H](Cc1ccccc1)C(N)=O [FFFLSRIF], which MIC (Klebsiella pneumoniae) is on record?
A: > 100 µM

Q: What about the MIC [1] of the same molecule?
A: > 200 µM and 100 µM

Q: And the MIC [2]?
A: > 100 µM

Q: And the MIC (Bacillus subtilis JC443)?
A: ≥ 149 µM

Q: And the MIC (Escherichia coli D21)?
A: ≥ 100 µM

Q: What about the MIC [3] of the same molecule?
A: 25 µM (≈ 26.9 µg/mL)

Q: What about the MIC [4] of the same molecule?
A: ≥ 50 µM

Q: And the MIC (Listeria ivanovii)?
A: ≥ 50 µM

Q: And the MIC (Bacillus megaterium)?
A: 3 µM (≈ 3.23 µg/mL)

Q: What about the MIC (Escherichia coli JC113) of the same molecule?
A: ≥ 116 µM

Q: And the MIC [5]?
A: > 100 µM

Q: What about the MIC [6] of the same molecule?
A: > 100 µM

Q: And the MIC [7]?
A: ≥ 121 µM

Q: And the MIC (Acinetobacter baumannii)?
A: ≥ 100 µM

Q: And the MIC [8]?
A: ≥ 50 µM

Q: And the MIC (Saccharomyces cerevisiae)?
A: 12.5 µM (≈ 13.4 µg/mL)

Q: And the MIC (Aspergillus flavus)?
A: ≥ 200 µM

Q: What about the MIC [9] of the same molecule?
A: ≥ 100 µM

Q: And the MIC [10]?
A: 25 µM (≈ 26.9 µg/mL)

Q: And the MIC (Staphylococcus aureus)?
A: 100 µM (≈ 108 µg/mL)

Q: And the MIC (Escherichia coli)?
A: > 100 µM

Q: What about the MIC [11] of the same molecule?
A: ≥ 50 µM

Q: And the MIC [12]?
A: 50 µM and 100 µM

Q: What about the MIC (Escherichia coli ML-35p) of the same molecule?
A: 30 µM (≈ 32.3 µg/mL)

Q: And the MIC [13]?
A: ≥ 88 µM

Q: And the MIC [14]?
A: ≥ 200 µM

Q: What about the MIC [15] of the same molecule?
A: > 100 µM

Q: Which results are given for CC[C@H](C)[C@H](NC(=O)[C@H](CCCCN)NC(=O)CNC(=O)[C@H](CC(C)C)NC(=O)[C@@H](NC(=O)[C@H](CCCCN)NC(=O)[C@H](CCCNC(=N)N)NC(=O)[C@H](Cc1c[nH]c2ccccc12)NC(=O)[C@@H](N)CC(N)=O)[C@@H](C)CC)C(=O)N[C@@H](C)C(=O)N[C@@H](CCCCN)C(=O)N[C@H](C(=O)N[C@@H](C)C(=O)N[C@@H](C)C(=O)NCC(=O)N[C@@H](CC(C)C)C(=O)N[C@@H](CC(C)C)C(=O)NCC(=O)N[C@@H](CO)C(=O)N[C@@H](CCSC)C(=O)N[C@@H](CC(C)C)C(=O)N[C@@H](C)C(=O)NCC(=O)N[C@@H](Cc1ccc(O)cc1)C(=O)N[C@@H](CCC(N)=O)C(=O)N[C@H](C(=O)O)C(C)C)C(C)C [NWRKILGKIAKVAAGLLGSMLAGYQV]?
A: MIC [16]: 2.27 µM (≈ 6.25 µg/mL); MIC [17]: 4.53 µM (≈ 12.5 µg/mL); MIC [18]: 4.53 µM (≈ 12.5 µg/mL); MIC [19]: 2.27 µM (≈ 6.25 µg/mL); MIC [20]: 2.27 µM (≈ 6.25 µg/mL); MIC [21]: 9.06 µM (≈ 25 µg/mL); MIC (Salmonella typhimurium): 4.53 µM (≈ 12.5 µg/mL); MIC [22]: 9.06 µM (≈ 25 µg/mL); MIC [23]: 4.35 µM (≈ 12 µg/mL)

Q: Which results are given for NCCCC[C@H](NC(=O)CN)C(=O)N[C@@H](CCCCN)C(=O)N[C@@H](Cc1ccc(O)cc1)C(=O)N[C@@H](CCCN=C(N)N)C(=O)N[C@@H](CCCN=C(N)N)C(=O)N[C@@H](Cc1ccccc1)C(=O)N[C@@H](CCCN=C(N)N)C(=O)N[C@@H](Cc1c[nH]c2ccccc12)C(=O)N[C@@H](CCCCN)C(=O)N[C@@H](Cc1ccccc1)C(=O)N[C@@H](CCCN=C(N)N)C(=O)N[C@@H](CCCCN)C(=O)NCC(=O)N[C@@H](CCCN=C(N)N)C(=O)N[C@@H](Cc1ccccc1)C(=O)N[C@@H](Cc1c[nH]c2ccccc12)C(=O)N[C@@H](Cc1ccccc1)C(=O)N[C@@H](Cc1c[nH]c2ccccc12)C(=O)NCC(N)=O [GKKYRRFRWKFRKGRFWFWG]?
A: MIC [24]: 11.5 µM (≈ 32 µg/mL); MIC [25]: 5.73 µM (≈ 16 µg/mL); MIC [1]: 5.73 µM (≈ 16 µg/mL); MIC [26]: 22.9 µM (≈ 64 µg/mL); MIC [27]: 5.73 µM (≈ 16 µg/mL); MIC [6]: 5.73 µM (≈ 16 µg/mL); MIC [28]: 5.73 µM (≈ 16 µg/mL); MIC [29]: 1.43 µM (≈ 4 µg/mL); MIC [15]: 5.73 µM (≈ 16 µg/mL)

Q: Which MIC [30] does the source give for CC(C)C[C@H](NC(=O)[C@H](C)NC(=O)[C@H](C)NC(=O)[C@H](CC(N)=O)NC(=O)[C@H](Cc1ccccc1)NC(=O)[C@H](CC(C)C)NC(=O)[C@@H]1CCCN1C(=O)[C@H](CCCCN)NC(=O)[C@H](CC(C)C)NC(=O)[C@@H](N)Cc1ccccc1)C(=O)N[C@@H](CCCCN)C(=O)N[C@@H](CC(C)C)C(=O)N[C@@H](CC(C)C)C(=O)N1CCC[C@H]1C(N)=O [FLKPLFNAALKLLP] here?
A: 20.9 µM (≈ 33.2 µg/mL)

Q: What about the MIC [31] of the same molecule?
A: 15.6 µM (≈ 24.7 µg/mL)

Q: And the MIC [32]?
A: 19.7 µM (≈ 31.2 µg/mL)

Q: And the MIC [33]?
A: 15.3 µM (≈ 24.2 µg/mL)

Q: What about the MIC [34] of the same molecule?
A: 22.2 µM (≈ 35.2 µg/mL)
